Assay results as given in PubChem BioAssay (NCI).
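Exposure lasted 48 hours, with cells grown in 96-well plates and compounds tested at five concentrations. At the TGI there is no net growth.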

Tests used:
Experiment in all cases: NCI tumour cell line growth inhibition, 48 h
[1] = system: MALME-3M melanoma
[2] = system: SW-620 colon
[3] = system: SNB-75 CNS
[4] = system: SR leukemia
[5] = system: NCI-H522 lung
[6] = system: RPMI-8226 leukemia
[7] = system: SK-MEL-2 melanoma
[8] = system: NCI-H226 lung
[9] = system: IGROV1 ovarian
[10] = system: DMS 273 small cell lung
[11] = system: NCI-H23 lung
[12] = system: HOP-92 NSCLC
[13] = system: OVCAR-4 ovarian
[14] = system: KM20L2 colon
[15] = system: MOLT-4 leukemia
[16] = system: TK-10 renal
[17] = system: UACC-62 melanoma
[18] = system: SF-539 CNS
[19] = system: COLO 205 colon
[20] = system: CAKI-1 renal
[21] = system: SN12C renal
[22] = system: NCI-H460 lung
[23] = system: SF-268 CNS
[24] = system: LOX IMVI melanoma
[25] = system: K-562 leukemia
[26] = system: SNB-78 CNS
[27] = system: LXFL 529 NSCLC
[28] = system: M19-MEL melanoma
[29] = system: SK-MEL-5 melanoma
[30] = system: CCRF-CEM leukemia
[31] = system: OVCAR-8 ovarian
[32] = system: OVCAR-5 ovarian
[33] = system: HCT-116 colon
[34] = system: DLD-1 colon
[35] = system: SF-295 CNS
[36] = system: HL-60(TB) leukemia
[37] = system: SK-OV-3 ovarian
[38] = system: A549 NSCLC
[39] = system: UACC-257 melanoma
[40] = system: SK-MEL-28 melanoma
[41] = system: KM12 colon
[42] = system: 786-0 renal
[43] = system: DMS 114 small cell lung
[44] = system: U251 CNS
[45] = system: ACHN renal
[46] = system: HOP-62 NSCLC
[47] = system: RXF 393 renal
[48] = system: UO-31 renal
[49] = system: A498 renal
[50] = system: HT29 colon
[51] = system: HCT-15 colon
[52] = system: M14 melanoma
[53] = system: HOP-18 NSCLC
[54] = system: OVCAR-3 ovarian
[55] = system: HCC-2998 colon
[56] = system: SNB-19 CNS
[57] = system: EKVX NSCLC
[58] = system: XF 498 CNS

With O=Cc1c(O)ccc2ccc(O)c(-c3c(O)ccc4ccc(O)cc34)c12 the TGI [1] was > 100 µM, the TGI [2] was > 100 µM and the TGI [3] was > 100 µM. For the same compound, the TGI [4] was > 100 µM, the TGI [5] was > 100 µM and the TGI [6] was > 100 µM. The TGI [7] was > 100 µM, the TGI [8] was 95.1 µM and the TGI [9] was > 100 µM. The TGI [10] was > 100 µM, the TGI [11] was > 100 µM and the TGI [12] was > 100 µM. For the same compound, the TGI [13] was > 100 µM, the TGI [14] was > 100 µM and the TGI [15] was > 100 µM. The TGI [16] was > 100 µM, the TGI [17] was > 100 µM and the TGI [18] was > 100 µM. The TGI [19] was > 100 µM, the TGI [20] was > 100 µM and the TGI [21] was > 100 µM. For the same compound, the TGI [22] was > 100 µM, the TGI [23] was > 100 µM and the TGI [24] was > 100 µM. For the same compound, the TGI [25] was > 100 µM, the TGI [26] was > 100 µM and the TGI [27] was > 100 µM. For the same compound, the TGI [28] was > 100 µM, the TGI [29] was > 100 µM and the TGI [30] was > 100 µM. For the same compound, the TGI [31] was > 100 µM, the TGI [32] was > 100 µM and the TGI [33] was > 100 µM. The TGI [34] was > 100 µM, the TGI [35] was > 100 µM and the TGI [36] was > 100 µM. The TGI [37] was > 100 µM, the TGI [38] was > 100 µM and the TGI [39] was > 100 µM. The TGI [40] was > 100 µM, the TGI [41] was > 100 µM and the TGI [42] was > 100 µM. For the same compound, the TGI [43] was > 100 µM, the TGI [44] was > 100 µM and the TGI [45] was > 100 µM. For the same compound, the TGI [46] was > 100 µM, the TGI [47] was > 100 µM and the TGI [48] was > 100 µM. For the same compound, the TGI [49] was > 100 µM, the TGI [50] was > 100 µM and the TGI [51] was > 100 µM. For the same compound, the TGI [52] was > 100 µM, the TGI [53] was > 100 µM and the TGI [54] was > 100 µM.

For CCOP(=S)(OCC)Oc1ccc2c(c1)OC(=O)C1(Cl)C2(C)C2(Cl)C(=O)Oc3cc(OP(=S)(OCC)OCC)ccc3C12C (stereo unspecified), the TGI [1] was 43.8 µM, the TGI [2] was 33.3 µM and the TGI [3] was 34.3 µM. For the same compound, the TGI [5] was 22.3 µM, the TGI [6] was 52.8 µM and the TGI [7] was 42.3 µM. The TGI [8] was 31.1 µM, the TGI [9] was 38.7 µM and the TGI [10] was 38.1 µM. The TGI [13] was 24.4 µM, the TGI [14] was 33.4 µM and the TGI [15] was 66.6 µM. It also gave a TGI [16] of 61.8 µM, a TGI [17] of 26.6 µM and a TGI [18] of 24.7 µM. It also gave a TGI [19] of 34.3 µM, a TGI [20] of 41.8 µM and a TGI [21] of 39.3 µM. The TGI [22] was 36.6 µM, the TGI [23] was 21 µM and the TGI [24] was 37.5 µM. The TGI [25] was 77.3 µM, the TGI [26] was 49.4 µM and the TGI [27] was 21.1 µM. The TGI [28] was 33.9 µM, the TGI [29] was 31.7 µM and the TGI [30] was 41.1 µM. The TGI [31] was 37.2 µM, the TGI [32] was 33.3 µM and the TGI [33] was 25 µM. It also gave a TGI [34] of 33.3 µM, a TGI [35] of 29.7 µM and a TGI [36] of 34.4 µM. The TGI [55] was 33.9 µM, the TGI [56] was 15.6 µM and the TGI [38] was 74.1 µM. It also gave a TGI [39] of 37.2 µM, a TGI [40] of 31.1 µM and a TGI [41] of 30.7 µM. For the same compound, the TGI [57] was 55.5 µM, the TGI [42] was 44.9 µM and the TGI [43] was 30 µM. The TGI [44] was 20 µM, the TGI [45] was 43.4 µM and the TGI [46] was 40.3 µM. For the same compound, the TGI [47] was 25.8 µM, the TGI [48] was 33.7 µM and the TGI [49] was 63.7 µM. The TGI [50] was 29.9 µM, the TGI [51] was 41.6 µM and the TGI [52] was 33.7 µM. The TGI [58] was 36.2 µM and the TGI [54] was 28.1 µM.

For CCCCC1CC(c2ccc(Cl)cc2)=NO1 (stereo unspecified), the TGI [1] was > 100 µM, the TGI [2] was > 100 µM and the TGI [3] was > 100 µM. The TGI [4] was > 100 µM, the TGI [5] was > 100 µM and the TGI [6] was > 100 µM. The TGI [7] was > 100 µM, the TGI [8] was > 100 µM and the TGI [9] was > 100 µM. The TGI [10] was > 100 µM, the TGI [11] was > 100 µM and the TGI [12] was > 100 µM. For the same compound, the TGI [13] was > 100 µM, the TGI [15] was > 100 µM and the TGI [16] was > 100 µM. The TGI [17] was > 100 µM, the TGI [18] was > 100 µM and the TGI [19] was > 100 µM. The TGI [20] was > 100 µM, the TGI [21] was > 100 µM and the TGI [22] was > 100 µM. The TGI [23] was > 100 µM, the TGI [25] was > 100 µM and the TGI [26] was > 100 µM. For the same compound, the TGI [27] was > 100 µM, the TGI [28] was > 100 µM and the TGI [29] was > 100 µM. The TGI [30] was > 100 µM, the TGI [31] was > 100 µM and the TGI [32] was > 100 µM. The TGI [33] was > 100 µM, the TGI [34] was > 100 µM and the TGI [35] was > 100 µM. The TGI [36] was > 100 µM, the TGI [55] was > 100 µM and the TGI [56] was > 100 µM. The TGI [37] was > 100 µM, the TGI [38] was > 100 µM and the TGI [39] was > 100 µM. The TGI [40] was > 100 µM, the TGI [41] was > 100 µM and the TGI [57] was > 100 µM. The TGI [42] was > 100 µM, the TGI [43] was > 100 µM and the TGI [44] was > 100 µM. The TGI [45] was > 100 µM, the TGI [46] was > 100 µM and the TGI [48] was > 100 µM. For the same compound, the TGI [49] was > 100 µM, the TGI [50] was > 100 µM and the TGI [51] was > 100 µM. For the same compound, the TGI [52] was > 100 µM, the TGI [53] was > 100 µM and the TGI [54] was > 100 µM.
